This note sets out measurements from the SangsterLogP compilation.

The term logD denotes the decadic logarithm of the distribution of all forms, ionised or not, between an organic phase and buffer at a given pH. Low readings indicate a more hydrophilic compound, high ones a more lipophilic compound.

The series is described as follows: from Kabankin, S.; Boldeskul, E.; Trinus, P.; Protsenko, D.; Landau, A. (1982). Physicochemical characteristics, antitumor activity and quantitative structure-activity relations for phosphoric …. The settings on record: pH 7.4.

In turn, `O=C(NP(=O)(N1CC1)N1CC1)c1ccc(Cl)cc1` gave a logD of 0.46.

`O=C(NP(=O)(N1CC1)N1CC1)c1cc(Br)cc(Br)c1`: the logD was 1.15.

As for `O=C(NP(=O)(N1CC1)N1CC1)c1ccc(I)cc1`, the logD was found to be 1.63.

Consider `O=C(NP(=O)(N1CC1)N1CC1)c1cccc(Br)c1`, for which the logD was found to be 0.88.

`COc1ccc(C(=O)NP(=O)(N2CC2)N2CC2)cc1` displayed a logD of -0.02.

In the case of `C=CCc1cccc(C(=O)NP(=O)(N2CC2)N2CC2)c1`, the pH-dependent lipophilicity (logD) worked out at 0.65.

As to `O=C(NP(=O)(N1CC1)N1CC1)c1cc(I)cc(I)c1I`, the logD was 0.81.

Compound `O=C(NP(=O)(N1CC1)N1CC1)c1ccc(F)cc1` registered a logD of 0.13.

As for `O=C(NP(=O)(N1CC1)N1CC1)c1ccccc1Br`, the logD turned out to be 0.45.

`C=CCc1ccc(C(=O)NP(=O)(N2CC2)N2CC2)cc1` returned a logD of 0.69.

As for `O=C(NP(=O)(N1CC1)N1CC1)c1ccccc1`, the logD was -0.15.

`COc1cccc(C(=O)NP(=O)(N2CC2)N2CC2)c1` displayed a logD of 0.04.

With `O=C(NP(=O)(N1CC1)N1CC1)c1cccc(I)c1`, the logD worked out at 1.37.

Compound `CCOc1cccc(C(=O)NP(=O)(N2CC2)N2CC2)c1` gave a logD of 0.42.

Compound `O=C(NP(=O)(N1CC1)N1CC1)c1cc(I)cc(I)c1` came in with a logD of 2.52.
